Patent US10052320B2, “Substituted quinoxalines as FGFR kinase inhibitors” (ASTEX THERAPEUTICS LIMITED, priority 2011, dated 2018)
Like-named read-outs stand apart in the source and are kept apart here.

What was measured:
Type in all cases: cell-based
[1] = biological target: Ba/F3-FGFR1-transfected cells (Homo sapiens, UniProt P11362); experiment: Ba/F3-FGFR1 (minus IL3) cellular proliferation assay, Alamar Blue; conditions: for BAF3-FGFR 1 (MIN IL3) 384 well pIC50: minus IL3, 384 well; for BAF3-FGFR 1 (MIN IL3) 96 well pIC50: minus IL3, 96 well
Chain of Ba/F3-FGFR1-transfected cells (P11362 whole entry, change not shown): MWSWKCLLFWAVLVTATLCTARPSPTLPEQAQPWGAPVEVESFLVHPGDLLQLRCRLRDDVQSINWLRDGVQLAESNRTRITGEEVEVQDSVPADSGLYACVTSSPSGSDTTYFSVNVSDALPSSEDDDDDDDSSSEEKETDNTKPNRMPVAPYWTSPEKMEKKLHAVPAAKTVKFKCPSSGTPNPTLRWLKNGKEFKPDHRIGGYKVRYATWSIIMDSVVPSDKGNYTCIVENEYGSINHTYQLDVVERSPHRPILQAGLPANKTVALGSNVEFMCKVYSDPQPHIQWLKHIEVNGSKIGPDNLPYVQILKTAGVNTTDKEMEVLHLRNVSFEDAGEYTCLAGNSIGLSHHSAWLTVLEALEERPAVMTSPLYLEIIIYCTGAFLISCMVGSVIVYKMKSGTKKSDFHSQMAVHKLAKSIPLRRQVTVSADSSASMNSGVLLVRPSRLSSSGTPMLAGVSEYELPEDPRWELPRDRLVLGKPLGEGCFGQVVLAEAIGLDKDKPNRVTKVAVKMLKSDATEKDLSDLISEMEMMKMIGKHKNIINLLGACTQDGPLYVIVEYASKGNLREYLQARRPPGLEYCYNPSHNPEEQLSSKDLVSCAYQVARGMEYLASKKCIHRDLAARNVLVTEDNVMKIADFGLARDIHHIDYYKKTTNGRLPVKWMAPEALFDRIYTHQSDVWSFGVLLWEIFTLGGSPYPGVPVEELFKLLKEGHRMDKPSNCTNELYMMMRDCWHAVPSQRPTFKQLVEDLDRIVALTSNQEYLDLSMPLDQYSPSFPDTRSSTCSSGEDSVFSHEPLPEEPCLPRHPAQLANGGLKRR
Method: (§1) Ba/F3-FGFR1 (Minus IL3 or Plus IL3) (Cellular Proliferation Assay)
Cells were put in an incubator at 37° C. and 5% CO2. After 24 hours, 10 μl of Alamar Blue solution (0.5 mM K3Fe(CN)6, 0.5 mM KaFe(CN)6, 0.15 mM Resazurin and 100 mM Phosphate Buffer) was added to the wells, incubated for 4 hours at 37° C. and 5% CO2 before RFU's (Relative Fluorescence Units) (ex. 540 nm., em. 590 nm.) were measured in a flurorescence plate reader. […]
(§2) In a 96 well plate, 180 μl cell culture medium (phenol red free RPMI-1640, 10% FBS, 2 mM L-Glutamine and 50 μg/ml Gentamycin) containing 10000 cells per well of Ba/F3-FGFR1-transfected cells were pipette and 20 μl of compound dilution in DMSO was added. Cells were put in an incubator at 37° C. and 5% CO2. After 24 hours, 40 μl of Alamar Blue solution (0.5 mM K3Fe(CN)6, 0.5 mM KaFe(CN)6, 0.15 mM Resazurin and 100 mM Phosphate Buffer) was added to the wells, incubated for 4 hours at 37° C. and 5% CO2 before RFU's (Relative Fluorescence Units) (ex. 540 nm., em. 590 nm.) were measured in a flurorescence plate reader.

[2] = tested on: Ba/F3-FGFR1-transfected cells in the presence of 10 ng/ml murine IL3; experiment: Ba/F3-FGFR1 (plus IL3) cellular proliferation counterscreen, Alamar Blue; conditions: Mus musculus
Method: as §1
as §2, with “a 384” for “a 96”, “plate, 100 nl of compound dilution in DMSO was sprayed before adding 50” for “plate, 180”, “containing 20000” for “containing 10000”, “Ba/F3-FGFR1-transfected cells.” for “Ba/F3-FGFR1-transfected cells were pipette and 20 μl of compound dilution in DMSO was added.”, “hours, 10” for “hours, 40”
(§3) As a counterscreen the same experiment was performed in the presence of 10 ng/ml murine IL3.
as §2

[3] = tested on: Ba/F3-Flt3-transfected cells in the presence of 10 ng/ml murine IL3; experiment: Ba/F3-Flt3 (plus IL3) cellular proliferation counterscreen, Alamar Blue; conditions: Mus musculus, read-out: BAF3-FLT3 (PLUS IL3) 384 well pIC50 (converted)
Method: Ba/F3-Flt3 (Minus IL3 or Plus IL3) (Cellular Proliferation Assay)
as §2, with “a 384” for “a 96”, “plate, 100 nl of compound dilution in DMSO was sprayed before adding 50” for “plate, 180”, “containing 20000” for “containing 10000”, “of Ba/F3-Flt3-transfected cells.” for “of Ba/F3-FGFR1-transfected cells were pipette and 20 μl of compound dilution in DMSO was added.”, “hours, 10” for “hours, 40”
as §3
as §2, with “Ba/F3-Flt3-transfected” for “Ba/F3-FGFR1-transfected”

[4] = plus IL3, 384 well, read-out: BAF3-FGFR 1 (PLUS IL3) 384 well pIC50 (converted)
[5] = plus IL3, 96 well, read-out: BAF3-FGFR 1 (PLUS IL3) 96 well pIC50 (converted)

Structure (SMILES)	BAF3-FGFR 1 (MIN IL3) 384 well pIC50 [1]	IC50 [2, 4] [µM]	IC50 ([3]; plus 10 ng/ml murine IL3) [µM]	BAF3-FGFR 1 (MIN IL3) 96 well pIC50 [1]	IC50 [2, 5] [µM]	IC50 ([3]; plus IL3, 384 well) [µM]
COc1cc(OC)cc(N(CCN2CCNCC2)c2ccc3ncc(-c4ccc(N)nc4)nc3c2)c1 [Compound 59]	6.22	> 10	> 10	–	–	–
COc1cc(OC)cc(N(CC2CC2)c2ccc3ncc(C(=O)Nc4cncn4C)nc3c2)c1 [Compound 27]	<5	> 10	> 10	<5	> 10	–
COc1cc(OC)cc(N(CCCNCC(F)(F)F)c2ccc3ncc(-c4ccn(C)c4)nc3c2)c1 [Compound 5]	5.99	> 10	> 10	–	–	–
COc1cc(OC)cc(N(CCCO)c2ccc3ncc(-c4cccnc4F)nc3c2)c1 [Compound 149]	5.32	> 10	> 10	–	–	–
COc1cc(OC)cc(N(CCCNC(C)C)c2ccc3ncc(-c4ccnc(NC(=O)OC(C)(C)C)c4)nc3c2)c1 [Compound 137]	5.75	–	–	–	–	–
COc1cc(OC)cc(N(CC2CC2)c2ccc3ncc(-c4ccnc(N5CCN(C)CC5)c4)nc3c2)c1 [Compound 37]	5.16	> 10	–	5.4	7.59	7.94
COc1cc(OC)cc(N(CCO)c2ccc3ncc(N4CCC(CN)CC4)nc3c2)c1 [Compound 84]	5.05	–	–	–	–	–
COc1cc(OC)cc(N(CCCO)c2ccc3ncc(-c4cnc(N5CCN(C)CC5)c(C)c4)nc3c2)c1 [Compound 135]	6.42	–	–	–	–	–
COc1cc(OC)cc(N(CCCO)c2ccc3ncc(-c4ccnc(-c5ccnc(Cl)c5)c4)nc3c2)c1 [Compound 133]	<5	> 10	> 10	–	–	–
COc1cc(OC)cc(N(CCCNCC(F)(F)F)c2ccc3ncc(-c4ccnc(C(=O)NCCCN)c4)nc3c2)c1 [Compound 148]	<5	> 10	> 10	–	–	–
COCC(CN(c1cc(OC)cc(OC)c1)c1ccc2ncc(-c3cccnc3)nc2c1)OC(C)=O (single isomer, unassigned) [Compound 52]	5.96	> 10	> 10	–	–	–
COc1cc(OC)cc(N(CC2CC2)c2ccc3ncc(-c4nnc(C)o4)nc3c2)c1 [Compound 85]	<5	–	–	–	–	–
COc1cc(OC)cc(N(CCO)c2ccc3ncc(-n4cnc(CO)c4)nc3c2)c1 [Compound 38]	6.31	> 10	> 10	–	–	–
COc1cc(OC)cc(N(CC2CC2)c2ccc3ncc(N4CCN(C)CC4)nc3c2)c1 [Compound 64]	<5	> 10	–	–	–	> 10
COc1cc(OC)cc(N(CC2CC2)c2ccc3ncc(-c4ccc5[nH]ccc5c4)nc3c2)c1 [Compound 86]	<5	–	–	–	–	–
COc1cc(OC)cc(N(CCO)c2ccc3ncc(-c4ccc(N5CCOCC5)nc4)nc3c2)c1 [Compound 19]	6.41	> 10	> 10	–	–	–
COc1cc(OC)cc(N(CC2CC2)c2ccc3ncc(-c4ccc5c(c4)OCO5)nc3c2)c1 [Compound 87]	<5.4	–	–	–	–	–
COc1cc(OC)cc(N(CCCO)c2ccc3ncc(-c4ccnc(Cl)c4)nc3c2)c1 [Compound 136]	5.63	> 10	> 10	–	–	–
COc1cc(OC)cc(N(CCO)c2ccc3ncc(-c4ccnc(C(=O)NCCCCCN)c4)nc3c2)c1 [Compound 138]	<5	–	–	–	–	–
COc1cc(OC)cc(N(CC2CC2)c2ccc3ncc(-c4cnc5[nH]ccc5c4)nc3c2)c1 [Compound 88]	<5	–	–	–	–	–
COc1cc(OC)cc(N(CC2CC2)c2ccc3ncc(-n4cccn4)nc3c2)c1 [Compound 95]	<5	–	–	–	–	–
COc1cc(OC)cc(N(CC2CC2)c2ccc3ncc(-c4cccc(N5CCOCC5)c4)nc3c2)c1 [Compound 92]	<5	–	–	<5	–	–
